Measured values as given in patent US11655217B2, “Pyrazole MAGL inhibitors” (H. Lundbeck A/S, priority 2017, dated 2023).

Experiments:
FAAH = FAAH (Mus musculus (Mouse), UniProt O08914); assay: Mouse brain proteomes from inhibitor treated mice (oral gavage, sacrificed 4 h after administration, ABPP analysis), FAAH; settings: 5 mg/kg oral gavage
Experimental: (§1) Preparation of Mouse Brain Proteomes from Inhibitor Treated Mice.
(§2) Inhibitors were administered to wild-type C57Bl/6J by oral gavage in a vehicle of polyethylene glycol.

MAGL = MAGL (Mus musculus (Mouse), UniProt O35678); assay: Mouse brain proteomes from inhibitor treated mice (oral gavage, sacrificed 4 h after administration, ABPP analysis); settings: 5 mg/kg oral gavage
Chain of MAGL (O35678 whole entry): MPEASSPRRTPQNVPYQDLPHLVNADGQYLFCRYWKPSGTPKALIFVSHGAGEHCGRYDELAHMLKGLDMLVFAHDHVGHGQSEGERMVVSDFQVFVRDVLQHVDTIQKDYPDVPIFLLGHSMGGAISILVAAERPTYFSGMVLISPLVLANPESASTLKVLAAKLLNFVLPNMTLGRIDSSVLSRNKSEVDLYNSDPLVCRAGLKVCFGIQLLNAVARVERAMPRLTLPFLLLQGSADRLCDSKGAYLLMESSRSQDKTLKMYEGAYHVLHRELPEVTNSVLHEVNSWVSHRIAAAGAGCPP
Experimental: as §1, §2

Chain of FAAH (O08914 whole entry): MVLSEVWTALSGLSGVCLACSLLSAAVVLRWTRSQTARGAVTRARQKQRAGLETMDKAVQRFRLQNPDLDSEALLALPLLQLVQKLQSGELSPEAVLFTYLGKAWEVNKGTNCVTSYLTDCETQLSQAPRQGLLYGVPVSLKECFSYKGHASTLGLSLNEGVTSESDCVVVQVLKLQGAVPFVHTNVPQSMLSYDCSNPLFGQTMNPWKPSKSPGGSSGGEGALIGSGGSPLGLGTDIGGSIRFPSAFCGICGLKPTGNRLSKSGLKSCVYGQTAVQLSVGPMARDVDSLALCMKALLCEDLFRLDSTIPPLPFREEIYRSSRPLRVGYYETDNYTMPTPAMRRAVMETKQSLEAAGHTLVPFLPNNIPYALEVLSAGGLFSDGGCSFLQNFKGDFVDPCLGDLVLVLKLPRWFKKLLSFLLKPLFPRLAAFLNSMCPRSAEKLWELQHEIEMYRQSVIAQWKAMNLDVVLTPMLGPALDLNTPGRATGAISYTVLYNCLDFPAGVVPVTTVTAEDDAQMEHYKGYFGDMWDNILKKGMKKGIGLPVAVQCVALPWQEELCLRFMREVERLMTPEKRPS

Compound | FAAH % inh. 5 mg/kg (mouse) (FAAH) | MAGL % inh. 5 mg/kg (mouse) (MAGL)
O=C(O)c1ccn(C(=O)N2CC3CN(Cc4ccc(N5CCCC5)cc4C(F)(F)F)CC3C2)n1 (stereo not shown) [Example 123, 1-(5-(4-(pyrrolidin-1-yl)-2-(trifluoromethyl)benzyl)octahydro-pyrrolo[3,4-c]pyrrole-2-carbonyl)-1H-pyrazole-3-carboxylic acid] | D (% inhibition is greater than or equal to 0% and less than 25%) | D (% inhibition is greater than or equal to 0% and less than 25%)
O=C(O)c1ccn(C(=O)N2CC3CN(Cc4cc(Cl)cc(C(F)(F)F)c4)CC3C2)n1 (stereo not shown) [Example 124, 1-(5-(3-chloro-5-(trifluoromethyl)benzyl)octahydro-pyrrolo[3,4-c]pyrrole-2-carbonyl)-1H-pyrazole-3-carboxylic acid] | C (% inhibition is greater than or equal to 25% and less than 50%) | D (% inhibition is greater than or equal to 0% and less than 25%)
Cc1cn(C(=O)N2CCC3(CCN(Cc4cc(Cl)ccc4C(F)(F)F)C3)CC2)nc1C(=O)O [Example 130, 1-(2-(5-chloro-2-(trifluoromethyl)benzyl)-2,8-diazaspiro[4.5]decane-8-carbonyl)-4-methyl-1H-pyrazole-3-carboxylic acid] | D (% inhibition is greater than or equal to 0% and less than 25%) | D (% inhibition is greater than or equal to 0% and less than 25%)
O=C(O)c1nn(C(=O)N2CCN(Cc3cccc(Oc4ccc(Cl)cc4)c3)CC2)cc1Cl [Example 132, 4-chloro-1-(4-(3-(4-chlorophenoxy)benzyl)piperazine-1-carbonyl)-1H-pyrazole-3-carboxylic acid] | D (% inhibition is greater than or equal to 0% and less than 25%) | D (% inhibition is greater than or equal to 0% and less than 25%)
O=C(O)c1nn(C(=O)N2CCC3(CCN(Cc4cc(Cl)ccc4C(F)(F)F)C3)CC2)cc1Cl [Example 133, 4-chloro-1-(2-(5-chloro-2-(trifluoromethyl)benzyl)-2,8-diazaspiro[4.5]decane-8-carbonyl)-1H-pyrazole-3-carboxylic acid] | D (% inhibition is greater than or equal to 0% and less than 25%) | D (% inhibition is greater than or equal to 0% and less than 25%)
Cc1cn(C(=O)N2CCC3(CC2)CN(Cc2ccc(C(F)(F)F)cc2N2CCCC2)C3)nc1C(=O)O [Example 135, 4-methyl-1-(2-(2-(pyrrolidin-1-yl)-4-(trifluoromethyl)benzyl)-2,7-diazaspiro[3.5]no-nane-7-carbonyl)-1H-pyrazole-3-carboxylic acid] | D (% inhibition is greater than or equal to 0% and less than 25%) | D (% inhibition is greater than or equal to 0% and less than 25%)
O=C(O)c1nn(C(=O)N2CCC3(CCCN3Cc3cc4ccc(C(F)(F)F)cc4s3)CC2)cc1Cl [Example 139, 4-chloro-1-(1-((6-(trifluoromethyl)benzo[b]thiophen-2-yl)methyl)-1,8-diazaspiro[4.5]decane-8-carbonyl)-1H-pyrazole-3-carboxylic acid] | D (% inhibition is greater than or equal to 0% and less than 25%) | D (% inhibition is greater than or equal to 0% and less than 25%)
O=C(O)c1nn(C(=O)N2CC3CN(Cc4ccc(N5CCCC5)cc4C(F)(F)F)CC3C2)cc1Cl (stereo not shown) [Example 140, 4-chloro-1-(5-(4-(pyrrolidin-1-yl)-2-(trifluoromethyl)benzyl)octahydro-pyrrolo[3,4-c]pyrrole-2-carbonyl)-1H-pyrazole-3-carboxylic acid] | D (% inhibition is greater than or equal to 0% and less than 25%) | D (% inhibition is greater than or equal to 0% and less than 25%)
O=C(O)c1nn(C(=O)N2CCC3(CCN(Cc4cc(Cl)ccc4C(F)(F)F)C3)CC2)cc1C(F)(F)F [Example 148, 1-(2-(5-chloro-2-(trifluoromethyl)benzyl)-2,8-diazaspiro[4.5]decane-8-carbonyl)-4-(trifluoromethyl)-1H-pyrazole-3-carboxylic acid] | C (% inhibition is greater than or equal to 25% and less than 50%) | D (% inhibition is greater than or equal to 0% and less than 25%)
O=C(O)c1ccn(C(=O)N2C[C@H]3C[C@H](OCc4cccc(C(F)(F)F)c4)C[C@H]3C2)n1 [Example 157, 1-(trans-5-((3-(trifluoromethyl)benzyl)oxy)octa-hydrocyclopenta[c]pyrrole-2-carbonyl)-1H-pyrazole-3-carboxylic acid] | D (% inhibition is greater than or equal to 0% and less than 25%) | D (% inhibition is greater than or equal to 0% and less than 25%)
O=C(O)c1ccn(C(=O)N2C[C@H]3C[C@H](OCc4cccc(Oc5ccc(Cl)cc5)c4)C[C@H]3C2)n1 [Example 158, 1-(trans-5-((3-(4-chlorophenoxy)benzyl)oxy)octa-hydrocyclopenta[c]pyrrole-2-carbonyl)-1H-pyrazole-3-carboxylic acid] | D (% inhibition is greater than or equal to 0% and less than 25%) | D (% inhibition is greater than or equal to 0% and less than 25%)
Cc1c(CO[C@H]2C[C@@H]3CN(C(=O)n4ccc(C(=O)O)n4)C[C@@H]3C2)cccc1C(F)(F)F [Example 159, 1-(trans-5-((2-methyl-3-(trifluoromethyl)benzyl)oxy)octa-hydrocyclopenta[c]pyrrole-2-carbonyl)-1H-pyrazole-3-carboxylic acid] | D (% inhibition is greater than or equal to 0% and less than 25%) | D (% inhibition is greater than or equal to 0% and less than 25%)
O=C(O)c1ccn(C(=O)N2CCC3(CCCN3Cc3cc4ccc(C(F)(F)F)cc4s3)CC2)n1 [Example 185, 1-(1-((6-(trifluoromethyl)-benzo[b]thiophen-2-yl)methyl)-1,8-diazaspiro[4.5]-decane-8-carbonyl)-1H-pyrazole-3-carboxylic acid] | D (% inhibition is greater than or equal to 0% and less than 25%) | D (% inhibition is greater than or equal to 0% and less than 25%)
O=C(O)c1ccn(C(=O)N2CCN(Cc3cc4cc(Cl)ccc4s3)CC2)n1 [Example 187, 1-(4-((5-chlorobenzo[b]thio-phen-2-yl)methyl)piperazine-1-carbonyl)-1H-pyrazole-3-carboxylic acid] | D (% inhibition is greater than or equal to 0% and less than 25%) | D (% inhibition is greater than or equal to 0% and less than 25%)
Cc1c(CN2CCN(C(=O)n3ccc(C(=O)O)n3)CC2)[nH]c2ccc(Cl)cc12 [Example 188, 1-(4-((5-chloro-3-methyl-1H-indol-2-yl)methyl)piperazine-1-carbonyl)-1H-pyrazole-3-carboxylic acid] | D (% inhibition is greater than or equal to 0% and less than 25%) | D (% inhibition is greater than or equal to 0% and less than 25%)
NC(=O)c1ccn(C(=O)N2CCN(Cc3cccc(C(F)(F)F)c3N3CCOCC3)CC2)n1 [Example 199, 1-(4-(2-morpholino-3-(trifluoromethyl)benzyl)piperazine-1-carbonyl)-1H-pyrazole-3-carboxamide] | D (% inhibition is greater than or equal to 0% and less than 25%) | A (% inhibition is greater than or equal to 75%)
CN(Cc1ccc(C(F)(F)F)cc1N1C2CCC1COC2)C1(C)CCN(C(=O)n2ccc(C(=O)O)n2)CC1 [Example 207, 1-(4-((2-(3-oxa-8-azabicyclo[3.2.1]octan-8-yl)-4-(trifluoromethyl)benzyl)(methyl)-amino)-4-methyl-piperidine-1-carbonyl)-1H-pyrazole-3-carboxylic acid] | D (% inhibition is greater than or equal to 0% and less than 25%) | D (% inhibition is greater than or equal to 0% and less than 25%)
O=C(O)c1ccn(C(=O)N2CCC3(CCN(Cc4cccc(Oc5ccc(Cl)cc5)c4)C3)CC2)n1 [Example 210, 1-(2-(3-(4-chlorophenoxy)benzyl)-2,8-diazaspiro[4.5]decane-8-carbonyl)-1H-pyrazole-3-carboxylic acid] | D (% inhibition is greater than or equal to 0% and less than 25%) | D (% inhibition is greater than or equal to 0% and less than 25%)
O=C(O)c1ccn(C(=O)N2CCN(Cc3cccc(Cl)c3N3CC4COCC4C3)CC2)n1 (stereo not shown) [Example 211, 1-(4-(3-chloro-2-(tetrahydro-1H-furo[3,4-c]pyrrol-5(3H)-yl)benzyl)piperazine-1-carbonyl)-1H-pyrazole-3-carboxylic acid] | D (% inhibition is greater than or equal to 0% and less than 25%) | D (% inhibition is greater than or equal to 0% and less than 25%)
O=C(O)c1ccn(C(=O)N2CCN(Cc3cccc(Cl)c3N3C4CCC3COC4)CC2)n1 [Example 212, 1-(4-(2-(3-oxa-8-azabicyclo[3.2.1]octan-8-yl)-3-chlorobenzyl)piper-azine-1-carbonyl)-1H-pyrazole-3-carboxylic acid] | D (% inhibition is greater than or equal to 0% and less than 25%) | D (% inhibition is greater than or equal to 0% and less than 25%)
